# In patent publication EP4737486A1, “HYALURONIC ACID DERIVATIVE, AND PREPARATION METHOD THEREFOR AND USE THEREOF” (priority 2023, dated 2025):
# Test system: blood
# Assay: Anticoagulant activity by prothrombin time in rat blood (CoaguChek X)
# Parameters: species or system male SD rats
# Conditions: 278 µg/mL in rat blood, n = 3; versus normal saline and no-addition groups
# Protocol: The anticoagulant activity of the compound was assessed by measuring prothrombin time according to the reference [Sulakshan Sulakshana et al., Anesth Essays Res., 2021, 15(4): 341-347].
# The experimental method and steps are as follows: • 1) About 2 mL of blood was obtained from the abdominal aorta of male SD rats (8 weeks old). One sample corresponded to one rat, and n = 3. • 2) Each substance was added to the blood at a concentration of 27.8 µg/mL or 278 µg/mL, and mixing was performed (generally, 27.8 µg/mL was used for transfusion). • 3) To assess the anticoagulant effect of the samples, prothrombin time was measured using CoaguChek X (Sekisui Medical).
# • 1) Normal saline; • 2) Unfractionated heparin (UFH), sodium heparin injection 5000 units/5 mL, Mochida (average molecular weight: 15000); • 3) Fragmin: low molecular weight heparin, average molecular weight of 5000, 5000 units/5 mL; • 4) Arixtra: […], average molecular weight of 1728 (5 mers), 5000 units/5 mL; • 5) No addition.
smiles,measurement,value
CO[C@H]1O[C@H](COS(=O)(=O)O)[C@@H](O[C@@H]2O[C@@H](C(=O)O)[C@@H](O[C@H]3O[C@H](COS(=O)(=O)O)[C@@H](O[C@@H]4O[C@H](C(=O)O)[C@@H](O[C@H]5O[C@H](COS(=O)(=O)O)[C@@H](O)[C@H](O)[C@H]5NS(=O)(=O)O)[C@H](O)[C@H]4O)[C@H](OS(=O)(=O)O)[C@H]3NS(=O)(=O)O)[C@H](O)[C@H]2OS(=O)(=O)O)[C@H](O)[C@H]1NS(=O)(=O)O [Arixtra],prothrombin time,significantly longer
